# Where two headings read alike, the source gives them in different places.
# Columns and labels:
# [1] = Cytotoxicity in AD38 cells; conditions: human
# HIV-1 BaL [2] = test: Antiviral assay in primary CD4+ T lymphocytes (p24 ELISA); conditions: Human immunodeficiency virus 1, BAL
# Description: (§1) Freshly isolated human peripheral blood mononuclear cells (PBMCs) were obtained from healthy volunteers (supplied by AllCells, Inc., Alameda, CA). Blood donors were negative for HIV-1, hepatitis B, and hepatitis C viral infections. CD4^+ T lymphocytes were isolated by negative selection using a magnetically labeled antibody cocktail ([sequence] Technologies Inc., Vancouver, Canada) and cultured in RPMI cell culture media (Life Technologies, Grand Island, NY) supplemented with 10% FBS. CD4^+ T cells were activated for 48 h at 37°C by addition of 1 μg/ml phytohemagglutinin (PHA; Sigma, St. Louis, MO) and 5 ng/ml interleukin-2 (IL-2; Roche Diagnostics, Indianapolis, IN).
# (§2) A 3-fold serial dilution of test compounds in RPMI medium was added to triplicate wells and incubated at 37°C for 5 days. Human monocytes were seeded on 96-well plates at a density of 3 × 10^5 cells per well, differentiated into adherent macrophages, and then infected with HIV-1 BaL virus in 50 μl RPMI for 3 h at 37°C. […] The supernatants derived from the CD4^+ T-cell and macrophage cultures were harvested 6 and 12 days postinfection, respectively, and the amount of HIV present was quantified by p24 enzyme-linked immunosorbent assay (ELISA) (PerkinElmer, Waltham, MA).
# [3] = tested on: NRTI-, NNRTI- and PI-Resistant HIV-1 Mutants; test: Antiviral activity against NRTI-, NNRTI- and PI-resistant HIV-1 mutants; type: cell-based; conditions: Human immunodeficiency virus 1; WT, Table S7
# [4] = tested on: HRV (mixture of HRV1A, HRV14, HRV16); test: microbe, parasite or virus in culture; type: cell-based; conditions: Human rhinovirus sp., H1-HeLa
# HCV 2a Replicon = test: Anti-HCV activity, HCV 2a replicon; conditions: Hepatitis C virus, Huh-7
# HIV-1 IIIb [5] = test: Antiviral assay in MT-4 cells; type: cell-based; conditions: Human immunodeficiency virus 1, MT4, 120 h, 5 days
# Description: For the antiviral assay utilizing MT-2 and MT-4 cells, 50 μl of a 2× test concentration of 5-fold serially diluted compound in culture medium with 10% FBS was added to each well of a 96-well plate (9 concentrations) in triplicate. MT-2 and MT-4 cells were infected with HIV-1 IIIb at a multiplicity of infection (MOI) of 0.01 for 3 h. Fifty microliters of infected cell suspension in culture medium with 10% FBS (∼1.5 × 10^4 cells) then was added to each well containing 50 μl of diluted compound. The plates were then incubated at 37°C for 5 days. After 5 days of incubation, 100 μl of CellTiter-Glo reagent (Promega Biosciences, Inc., Madison, WI) was added to each well containing MT-2 or MT-4 cells. Cell lysis was carried out by incubation at room temperature for 10 min and chemiluminescence was read. For compound cytotoxicity assessment, the protocol was identical except that uninfected cells were used and compounds were serially diluted 3-fold.
# Influenza B/LEE/40 = test: microbe, parasite or virus in culture; type: cell-based; conditions: NHBE
# [6] = tested on: inhibitor-selected HIV-1 IIIb passages; test: Phenotypic profile of selected HIV-1 passages; type: cell-based; conditions: Human immunodeficiency virus 1, IIIB
# HIV-1 IIIb [7] = test: HIV breakthrough selection in MT-2 cells; conditions: MT-2, HIV-1 IIIb; FTC 4× EC95, EVG 5× EC95, BIC and DTG 2.5× and 5× EC95; up to day 32
# in vitro = conditions: human, 6 days
# Description: Freshly isolated human peripheral blood mononuclear cells (PBMCs) were obtained from healthy volunteers (supplied by AllCells, Inc., Alameda, CA). Blood donors were negative for HIV-1, hepatitis B, and hepatitis C viral infections. CD4^+ T lymphocytes were isolated by negative selection using a magnetically labeled antibody cocktail ([sequence] Technologies Inc., Vancouver, Canada) and cultured in RPMI cell culture media (Life Technologies, Grand Island, NY) supplemented with 10% FBS. CD4^+ T cells were activated for 48 h at 37°C by addition of 1 μg/ml phytohemagglutinin (PHA; Sigma, St. Louis, MO) and 5 ng/ml interleukin-2 (IL-2; Roche Diagnostics, Indianapolis, IN). […] Human PBMCs were used for cytotoxicity assays after culturing for 48 h in either complete RPMI medium alone (resting conditions) or RPMI containing 1 μg/ml PHA and 5 ng/ml IL-2 (activated conditions).
# RSV strain A2 = test: microbe, parasite or virus in culture; type: cell-based, respiratory syncytial virus; conditions: human respiratory syncytial virus, HEp-2
# HIV-1 BaL [8] = conditions: primary CD4+ T-cells, 35 days, drug at tissue culture equivalent clinical Cmin (FTC 160 × EC50)
# HIV-1 clinical isolates = test: Antiviral assay against HIV-1 clinical isolates in fresh human PBMCs (RT endpoint)
# HCV 1b Replicon = test: Anti-HCV activity, HCV 1b replicon; conditions: Hepatitis C virus, Huh-7
# [9] = tested on: INSTI-resistant HIV-1 mutants (HXB2); test: microbe, parasite or virus in culture; type: cell-based
# HBV Production = test: microbe, parasite or virus in culture; conditions: Hepatitis B virus
# HIV-1 BaL [10] = test: Antiviral assay in monocyte-derived macrophages (p24 ELISA); conditions: Human immunodeficiency virus 1, BAL, Macrophage
# Description: as §1, §2
compound,measurement,setting,value
"C[C@@H]1CCO[C@H]2Cn3cc(C(=O)NCc4ccc(F)cc4F)c(=O)c(O)c3C(=O)N12 [DTG, Dolutegravir]",CC50 at 5 days,[1],> 50000 nM
same,EC50,HIV-1 BaL [2],1 ± 0.3 nM
same,EC50,[3],1.6 ± 0.5 nM
same,EC50,[4],> 50000 nM
same,EC50,HCV 2a Replicon,> 44000 nM
same,EC50,HIV-1 IIIb [5],1.5 ± 0.3 nM
same,EC50,Influenza B/LEE/40,15100 nM
same,EC50,"[6]; 480 h, selected virus EVG P2 (day 20, 7.2 nM)",5.4 nM
same,EC50,[6]; HIV-1-IIIb (unselected),2.5 nM
same,EC50,"[6]; selected virus BIC P3 (day 47, 6 nM)",3.6 nM
same,EC50,"[6]; selected virus BIC P5 (day 71, 12 nM)",6.4 nM
same,EC50,"[6]; selected virus BIC P6 (day 86, 24 nM)",8.3 nM
same,EC50,"[6]; selected virus BIC P8 (day 156, 96 nM)",12 nM
same,EC50,"[6]; selected virus BIC P9 (day 181, 192 nM)",19.1 nM
same,EC50,"[6]; selected virus BIC P10 (day 234, 384 nM)",14.7 nM
same,EC50,"[6]; selected virus DTG P3Lo (day 59, 6.4 nM)",3.2 nM
same,EC50,"[6]; selected virus DTG P4 (day 87, 9.6 nM)",7.8 nM
same,EC50,"[6]; selected virus DTG P5 (day 97, 14.4 nM)",10.3 nM
same,EC50,"[6]; selected virus DTG P7 (day 139, 32.4 nM)",12.4 nM
same,EC50,"[6]; selected virus DTG P9 (day 174, 72.9 nM)",15.6 nM
same,EC50,"[6]; selected virus DTG P10 (day 202, 109.4 nM)",19.7 nM
same,EC50,"[6]; selected virus EVG P4 (day 41, 28.8 nM)",7.1 nM
same,EC50,"[6]; selected virus EVG P6 (day 56, 115 nM)",7.1 nM
same,EC50,"[6]; selected virus EVG P7 (day 67, 230 nM)",8.1 nM
same,EC50,"[6]; selected virus EVG P9 (day 94, 922 nM)",6.6 nM
same,EC50,"[6]; selected virus EVG P10 (day 119, 1843 nM)",3.5 nM
same,day postinfection of HIV-1 breakthrough,HIV-1 IIIb [7],no virus breakthrough was observed
same,CC50,"in vitro; CC50, Activated PBMCs (IL-2/PHA 2 days)",23900 nM
same,CC50,"in vitro; CC50, Resting PBMCs",30600 nM
same,EC50,RSV strain A2,> 50000 nM
same,Frequency of Viral Breakthrough with RAMs,HIV-1 BaL [8],0%
same,p24+ Wells,HIV-1 BaL [8],0/24
same,EC50,"HIV-1 clinical isolates; Human immunodeficiency virus 1, BAL, PBMC, HIV-1 subtype B isolate BaL, human PBMCs",0.32 ± 0.11 nM
same,EC50,"HIV-1 clinical isolates; Human immunodeficiency virus 1, PBMC, HIV-1 subtype A isolate 92RW016, human PBMCs",0.34 ± 0.09 nM
same,EC50,"HIV-1 clinical isolates; Human immunodeficiency virus 1, PBMC, HIV-1 subtype A isolate 92UG037, human PBMCs",0.66 ± 0.05 nM
same,EC50,"HIV-1 clinical isolates; Human immunodeficiency virus 1, PBMC, HIV-1 subtype B isolate 89BZ_167, human PBMCs",1.4 ± 0.4 nM
same,EC50,"HIV-1 clinical isolates; Human immunodeficiency virus 1, PBMC, HIV-1 subtype B isolate 91US001, human PBMCs",0.8 ± 0.48 nM
same,EC50,"HIV-1 clinical isolates; Human immunodeficiency virus 1, PBMC, HIV-1 subtype B isolate 91US004, human PBMCs",1 ± 0.4 nM
same,EC50,"HIV-1 clinical isolates; Human immunodeficiency virus 1, PBMC, HIV-1 subtype C isolate 93IN905, human PBMCs",0.17 ± 0.03 nM
same,EC50,"HIV-1 clinical isolates; Human immunodeficiency virus 1, PBMC, HIV-1 subtype C isolate 98US_MSC5016, human PBMCs",0.75 ± 0.09 nM
same,EC50,"HIV-1 clinical isolates; Human immunodeficiency virus 1, PBMC, HIV-1 subtype D isolate 98UG_57128, human PBMCs",0.32 ± 0.48 nM
same,EC50,"HIV-1 clinical isolates; Human immunodeficiency virus 1, PBMC, HIV-1 subtype E isolate 96TH_M02138, human PBMCs",0.11 ± 0.01 nM
same,EC50,"HIV-1 clinical isolates; Human immunodeficiency virus 1, PBMC, HIV-1 subtype E isolate 96TH_NI1046, human PBMCs",0.25 ± 0.08 nM
same,EC50,"HIV-1 clinical isolates; Human immunodeficiency virus 1, PBMC, HIV-1 subtype F isolate 93BR020, human PBMCs",0.4 ± 0.19 nM
same,EC50,HCV 1b Replicon,> 44000 nM
same,EC50,"[9]; Human immunodeficiency virus 1, HXB2, IN mutant E92Q",1.8 ± 0.5 nM
same,EC50,"[9]; Human immunodeficiency virus 1, HXB2, IN mutant E92Q/N155H",2.8 ± 0.6 nM
same,EC50,"[9]; Human immunodeficiency virus 1, HXB2, IN mutant E138K/Q148K",13.7 ± 2.1 nM
same,EC50,"[9]; Human immunodeficiency virus 1, HXB2, IN mutant G140S/Q148R",6.5 ± 1.2 nM
same,EC50,"[9]; Human immunodeficiency virus 1, HXB2, IN mutant M50I (BIC/DTG selection)",2 ± 0.2 nM
same,EC50,"[9]; Human immunodeficiency virus 1, HXB2, IN mutant M50I/R263K (BIC selection)",3.6 ± 0.5 nM
same,EC50,"[9]; Human immunodeficiency virus 1, HXB2, IN mutant M50I/S119R/R263K (DTG selection)",6.2 ± 2.4 nM
same,EC50,"[9]; Human immunodeficiency virus 1, HXB2, IN mutant N155H",2.4 ± 0.6 nM
same,EC50,"[9]; Human immunodeficiency virus 1, HXB2, IN mutant N155H/Q148R",4.7 ± 1.5 nM
same,EC50,"[9]; Human immunodeficiency virus 1, HXB2, IN mutant Q148R",1 ± 0.3 nM
same,EC50,"[9]; Human immunodeficiency virus 1, HXB2, IN mutant R263K (BIC/DTG selection), Table 7",3.6 ± 0.4 nM
same,EC50,"[9]; Human immunodeficiency virus 1, HXB2, IN mutant R263K, Table 6",2.5 ± 0.4 nM
same,EC50,"[9]; Human immunodeficiency virus 1, HXB2, IN mutant S119R (DTG selection)",2.1 ± 0.7 nM
same,EC50,"[9]; Human immunodeficiency virus 1, HXB2, IN mutant S119R/R263K (DTG selection)",3.6 ± 0.8 nM
same,EC50,"[9]; Human immunodeficiency virus 1, HXB2, IN mutant S153Y (DTG selection)",4 ± 1.1 nM
same,EC50,"[9]; Human immunodeficiency virus 1, HXB2, IN mutant S153Y/R263K (DTG selection)",6.4 ± 0.8 nM
same,EC50,"[9]; Human immunodeficiency virus 1, HXB2, IN mutant Y143R",1.9 ± 0.5 nM
same,EC50,"[9]; Human immunodeficiency virus 1, HXB2, WT (HXB2), Table 6, read-out: EC50",1.4 ± 0.3 nM
same,levels of resistance of double IN mutants,[9]; {},2.1-10 fold
same,EC50,HBV Production,> 50000 nM
same,EC50,HIV-1 BaL [10],3.1 ± 2.5 nM
